# Laboratory results from US12492403B2, “Aptamers and the use thereof in the treatment of cancer” (FUNDACIÓN PARA LA INVESTIGACIÓN BIOMÉDICA DEL HOSPITAL …, priority 2018, dated 2025).
# Tests used:
# MNK1 = test: Recognition of the two isoforms of MNK1 by precursor and truncated aptamers; format: binding
# MCF7 cells [1] = test: MTT activity assay, aptamers transfected with Lipofectamine 2000; format: cell-based, human; conditions: MCF7, aptamer 250 nM, 48 hours after transfection
# Description: (§1) FIG. 3. Effect of the aptamers on MTT activity of MCF7 and MDA-MB-231 cells. The cells were seeded in 96-well plates at a density of 10^4 cells/well. After 16-24 hours, they were transfected with aptamers apMNKQ1, apMNKQ2, apMNKQ3, and apMNKQ4 at 250 nM for 48 hours after which MTT activity assays were performed. The bars represent the mean±SEM of 3-6 independent experiments (*p<0.05, **p<0.01, and ***p<0.001 with respect to the control aptamer AT).
# (§2) FIGS. 8A-8C. Effect of aptamer apMNKQ2 on MTT activity of breast cell lines. MCF7, MDA-MB-231, and MDA-MB-468 cells were seeded in 96-well plates at a density of 10^4 cells/well. […] The graphs represent the means±SEM of 3 independent experiments (*p<0.05, **p<0.01, and ***p<0.001 with respect to the control AT).
# (§3) The Lipofectamine™ 2000 system (Invitrogen, USA) was used to treat cells with the different aptamers. To prepare the DNA-lipofectamine complex, lipofectamine and DNA were separately diluted in opti-MEM (Gibco, USA) and left to incubate at room temperature for 5 minutes. They were then mixed to form lipofectamine-DNA complexes and incubated for 20 minutes at room temperature. Finally, the mixture was added to the cells that had been washed twice with antibiotic-free medium to prevent the interference thereof with lipofectamine. The cells were incubated at 37° C. for 5 hours, after which the reagent was removed and a complete medium was added.
# (§4) MTT activity. The cells were seeded in 96-well plates and after having been transfected, the culture medium was removed and 100 μL/well of MTT at 1 mg/ml in culture medium were added. The plates were incubated for 90 minutes in an incubator with a moisture-saturated environment at 37° C. and 5% CO2/[…] and 100 μL/well of a lysis solution (10% SDS and 10 mM HCl) were added for dissolving the crystals. After 48 hours, the reduction of MTT was determined by means of spectrophotometry in Infinite F200 (TECAN, Switzerland) at 540 nm.
# (§5) The results were expressed as the percentage of viability with respect to the control or in absorbance units.
# MDA-MB-231 cells [2] = test: as above; format: cell-based, human; conditions: MDA-MB-231, aptamer 250 nM, 48 hours after transfection
# Description: as §1, §2, §3, §4, §5
# AKT = test: Western blot of phosphorylation, combined therapy study; format: cell-based, human; conditions: MDA-MB-231 and MCF7 cells, 24 hours
# Description: (§6) FIG. 22A & 22B. Combined therapy studies of apMNKQ2 and everolimus. […] The different antibodies used are indicated.
# (§7) Seventy-two hours after treatment, MTT activity was measured.
# eIF4E = test: as above; format: cell-based, human; conditions: MDA-MB-231 and MCF7 cells, 24 hours
# Description: as §6, §7
# ribosomal protein S6 = test: as above; format: cell-based, human; conditions: MDA-MB-231 and MCF7 cells, 24 hours
# Description: as §6, §7
# MCF7 cells [3] = conditions: cells with IC50 greater than 1 nM are considered resistant; cited from earlier work
# MDA-MB-231 cells [4] = conditions: cells with IC50 greater than 1 nM are considered resistant; cited from earlier work
# DNase I = conditions: 1 unit of DNase I, 5 minutes at 37° C., same assay conditions (Garcia-Recio, Pinto-Diez et al. 2016); cited from earlier work
Molecule,"recognition of the two isoforms of MNK1 (MNK1a, MNK1b) (MNK1)",effect on MTT activity (MCF7 cells [1]),inhibition of MTT activity (MDA-MB-231 cells [2]),further results
"5′-TTTTTGGGGTGGGCGGGCGGGGGTGGGGGTGGTATGGCGCGTTGGCCC-3′ (DNA, backbone and methylation of C not given here; further chemistry not fully specified) [apMNK2FT, truncated 48-nucleotide aptamer derived from precursor aptamer apMNK2F]",recognized both isoforms in a similar manner,–,–,–
"5′TGGGGTGGGCGGGCGGGG-3′ (DNA, backbone and methylation of C not given here; further chemistry not fully specified) [apMNKQ1, 18-nucleotide aptamer designed from apMNK2FT based on G-quadruplex formation]",–,partial effect,30%,–
"5′GGGTGGGGGTGGT-3′ (DNA, backbone not given here; further chemistry not fully specified) [apMNKQ3, 13-nucleotide aptamer designed from apMNK2FT]",–,partial effect,about 15%,–
"5′-GGGTGGTATGGCGCGTTGGCCC-3′ (DNA, backbone and methylation of C not given here; further chemistry not fully specified) [apMNKQ4, 22-nucleotide aptamer designed from apMNK2FT]",–,partial effect,about 15%,–
"CO[C@H]1C[C@@H]2CC[C@@H](C)[C@@](O)(O2)C(=O)C(=O)N2CCCC[C@H]2C(=O)O[C@H]([C@H](C)C[C@@H]2CC[C@@H](OCCO)[C@H](OC)C2)CC(=O)[C@H](C)/C=C(\C)[C@@H](O)[C@@H](OC)C(=O)[C@H](C)C[C@H](C)/C=C/C=C/C=C/1C [everolimus, 40-O-(2-hydroxyethyl) derivative of sirolimus, reference compound]",–,–,–,phosphorylation of AKT (AKT): increased; phosphorylation of eIF4E (eIF4E): increased; phosphorylation of ribosomal protein S6 (dependent on mTOR activity) (ribosomal protein S6): inhibiting mTOR; sensitivity of the cell line to the drug (MCF7 cells [3]): resistant; sensitivity of the cell line to the drug (MDA-MB-231 cells [4]): resistant
"apMNK2F: precursor (parental) aptamer against MNK1, described in Garcia-Recio, Pinto-Diez et al. 2016 (nucleic acid, DNA, backbone and methylation of C not given here; further chemistry not fully specified) DNA: GCGGATGAAGACTGGTGTGGGGTGGGCGGGCGGGGGTGGGGGTGGTATGGCGCGTTGGCCCTAAATACGAGCAAC",higher affinity for MNK1b,–,–,stability (DNase I): 0%
